Results published in ChEMBL document CHEMBL1128928, “Synthesis and biological properties of partially modified retro and retro-inverso pseudo peptides of arg-gly-asp (RGD)” (Bioorg Med Chem Lett, 1996).
pIC50: −log10 of the molar value.

Experiments:
Type in all cases: functional
B16 [1] = assay: Compound was evaluated for lung metastasis produced by 500 ug/mouse i.v. injection of B16-BL6 melanoma.; Range 44-154
Homo sapiens [2] = species: Homo sapiens; assay: Compound was evaluated for inhibition of ADP-induced human platelet aggregation at concentration 1 mg/mL.
B16 [3] = assay: Compound was evaluated for lung metastasis produced by 500 ug/mouse i.v. injection of B16-BL6 melanoma,; Range 19-63
Homo sapiens [4] = species: Homo sapiens; assay: Compound was evaluated for inhibition of ADP-induced human platelet aggregation.
B16 [5] = assay: Compound was evaluated for lung metastasis produced by 500 ug/mouse i.v. injection of B16-BL6 melanoma. Range 4-36

## N=C(N)NCCC[C@H](N)C(=O)NCC(=O)N[C@@H](CC(=O)O)C(=O)N[C@@H](CO)C(=O)O
B16 [1]
  No. of lung metastasis: 93
Homo sapiens [2]
  inhibition at 1000 µg/mL: 100%

## N=C(N)NCCC[C@@H](NC(=O)CC(=O)N[C@@H](CC(=O)O)C(=O)O)C(=O)O
B16 [3]
  No. of lung metastasis: 38
Homo sapiens [2]
  inhibition at 1000 µg/mL: 53%

## N=C(N)NCCC[C@H](NC(=O)CC(=O)N[C@@H](CC(=O)O)C(=O)O)C(=O)O
Homo sapiens [2]
  inhibition at 1000 µg/mL: 57%
Homo sapiens [4]
  pIC50: 2.62
B16 [5]
  No. of lung metastasis: 19
